{"source": "patent US11589603B2", "about": "“Powdered nutritional product containing branched-chain amino acids and a sugar alcohol” (Abbott Laboratories, priority 2015, dated 2023)", "type_in_all_cases": "physicochemical", "key": {"[1]": {"experiment": "Example 3: aqueous dissolution of powdered branched-chain amino acid blend (first material) with varying myo-inositol, LC/UV of filtrate", "conditions": "for Dissolved amino acid (g per 16 oz.): 7.00 g BCAA blend, water 21° C., 400 rpm", "description": "(§1) Example 3 evaluates the effect that varying the myo-inositol concentration has on the aqueous dissolution of branched-chain amino acids. Two branched-chain amino acid materials were tested. The first material tested was 7.00 grams of a powdered branched-chain amino acid blend comprising 50 wt. % leucine, 25 wt. % isoleucine, and 25 wt. % valine. The second material tested was 3.5 grams of powdered leucine. Each material was tested with varying levels of powdered myo-inositol, expressed as a percentage of 17.6 grams (e.g., a serving of powdered nutritional product). For example, 1% myo-inositol is 0.176 grams, 2% myo-inositol is 0.352 grams, and so forth. The branched-chain amino acid material and the specified amount of myo-inositol were added to 16 fluid ounces of Milli-Q Plus water at 21° C. and stirred at 400 rpm. After 30 seconds and 60 seconds of stirring, an aliquot was obtained and filtered through a 0.45 μm PTFE membrane (Pall Life Sciences, Acrodisc CR 25, P/N 4501), and the filtrate of the first material was tested for valine, isoleucine, and leucine using the LC/UV method described below, while the filtrate of the second material was tested for leucine using the same LC/UV method. The test results for the first material tested are shown in Table 3, while the test results for the second material tested are shown in Table 4.\n(§2) The LC/UV system used to perform the tests comprised the following: 1) Column: YMC ODS-AQ, 4.6 x 250 mm, 5 μm, Waters P/N AQ12S052546WT; 2) Mobile Phase: Milli-Q Plus water; 3) Flow Rate: 0.4 mL/minute; 4) Temperature: 40° C.; 5) Detection: UV at 192 nm; 6) Injection: 2 μL of filtrate; and 7) Run Time: 20 minutes."}, "[2]": {"experiment": "Example 3: aqueous dissolution of powdered leucine only (second material) with varying myo-inositol, LC/UV of filtrate", "conditions": "for Dissolved Leucine (g per 16 oz.): 3.5 g leucine only, water 21° C., 400 rpm", "description": "as §1, §2"}, "[3]": {"experiment": "Example 4: aqueous dissolution of branched-chain amino acids in a powdered nutritional product with varying myo-inositol, LC/UV of filtrate", "conditions": "17.6 g powdered nutritional product, water 21° C., 400 rpm", "description": "as §2\nExample 4 evaluates the effect that myo-inositol concentration has on the aqueous dissolution of branched-chain amino acids (valine, isoleucine, and leucine) in a powdered nutritional product. One serving (17.6 grams) of the powdered nutritional product contains 7.00 grams of a branched-chain amino acid blend comprising 50 wt. % leucine, 25 wt. % isoleucine, and 25 wt. % valine. A serving of the powdered nutritional product with a specified amount of myo-inositol was added to 16 fluid ounces of Milli-Q Plus water at 21° C. and stirred at 400 rpm. At each specified time point, an aliquot was obtained and filtered through a 0.45 μm PTFE membrane (Pall Life Sciences, Acrodisc CR 25, P/N 4501), and the filtrate was tested for valine, isoleucine, and leucine using the LC/UV method as described in Example 3."}, "[4]": {"experiment": "Example 5: effect of inositol isomers on dissolution of L-leucine, LC/UV of filtrate", "conditions": "3.50 g L-leucine without inositol isomer (None, n = 3), water 21° C., 400 rpm", "description": "The LC/UV system used to perform the tests comprised the following: 1) Column: YMC ODS-AQ, 4.6 x 250 mm, 5 μm, Waters […]; 2) Mobile Phase: Milli-Q Plus water; 3) Flow Rate: 0.4 mL/minute; 4) Temperature: 40° C.; 5) Detection: UV at 192 nm; 6) Injection: 2 μL of filtrate; and 7) Run Time: 20 minutes."}, "[5]": {"conditions": "myo-inositol 0% of 17.6 g, 30 seconds"}, "[6]": {"conditions": "myo-inositol 0% of 17.6 g, 60 seconds"}, "[7]": {"conditions": "myo-inositol 1% of 17.6 g, 30 seconds"}, "[8]": {"conditions": "myo-inositol 1% of 17.6 g, 60 seconds"}, "[9]": {"conditions": "myo-inositol 2% of 17.6 g, 30 seconds"}, "[10]": {"conditions": "myo-inositol 2% of 17.6 g, 60 seconds"}, "[11]": {"conditions": "myo-inositol 4% of 17.6 g, 30 seconds"}, "[12]": {"conditions": "myo-inositol 4% of 17.6 g, 60 seconds"}, "[13]": {"conditions": "myo-inositol 8% of 17.6 g, 30 seconds"}, "[14]": {"conditions": "myo-inositol 8% of 17.6 g, 60 seconds"}}, "data": [{"smiles": "CC(C)C[C@H](N)C(=O)O", "note": "[Leucine, L-Leucine]", "values": [{"measurement": "Dissolved amino acid (g per 16 oz.)", "setting": "[1]; [5]", "value": 0.596, "unit": "g per 16 oz."}, {"measurement": "Dissolved amino acid (g per 16 oz.)", "setting": "[1]; [6]", "value": 1.21, "unit": "g per 16 oz."}, {"measurement": "Dissolved amino acid (g per 16 oz.)", "setting": "[1]; [7]", "value": 0.860, "unit": "g per 16 oz."}, {"measurement": "Dissolved amino acid (g per 16 oz.)", "setting": "[1]; [8]", "value": 1.51, "unit": "g per 16 oz."}, {"measurement": "Dissolved amino acid (g per 16 oz.)", "setting": "[1]; [9]", "value": 0.747, "unit": "g per 16 oz."}, {"measurement": "Dissolved amino acid (g per 16 oz.)", "setting": "[1]; [10]", "value": 1.53, "unit": "g per 16 oz."}, {"measurement": "Dissolved amino acid (g per 16 oz.)", "setting": "[1]; [11]", "value": 0.729, "unit": "g per 16 oz."}, {"measurement": "Dissolved amino acid (g per 16 oz.)", "setting": "[1]; [12]", "value": 1.36, "unit": "g per 16 oz."}, {"measurement": "Dissolved amino acid (g per 16 oz.)", "setting": "[1]; [13]", "value": 1.09, "unit": "g per 16 oz."}, {"measurement": "Dissolved amino acid (g per 16 oz.)", "setting": "[1]; [14]", "value": 1.94, "unit": "g per 16 oz."}, {"measurement": "dissolution rate of leucine in first material compared with second material (FIG. 4)", "setting": "[1]; 30 second time point, all myo-inositol concentrations", "value": "faster"}, {"measurement": "Dissolved Leucine (g per 16 oz.)", "setting": "[2]; [5]", "value": 0.353, "unit": "g per 16 oz."}, {"measurement": "Dissolved Leucine (g per 16 oz.)", "setting": "[2]; [6]", "value": 0.703, "unit": "g per 16 oz."}, {"measurement": "Dissolved Leucine (g per 16 oz.)", "setting": "[2]; [7]", "value": 0.480, "unit": "g per 16 oz."}, {"measurement": "Dissolved Leucine (g per 16 oz.)", "setting": "[2]; [8]", "value": 1.04, "unit": "g per 16 oz."}, {"measurement": "Dissolved Leucine (g per 16 oz.)", "setting": "[2]; [9]", "value": 0.616, "unit": "g per 16 oz."}, {"measurement": "Dissolved Leucine (g per 16 oz.)", "setting": "[2]; [10]", "value": 1.33, "unit": "g per 16 oz."}, {"measurement": "Dissolved Leucine (g per 16 oz.)", "setting": "[2]; [11]", "value": 0.549, "unit": "g per 16 oz."}, {"measurement": "Dissolved Leucine (g per 16 oz.)", "setting": "[2]; [12]", "value": 1.09, "unit": "g per 16 oz."}, {"measurement": "Dissolved Leucine (g per 16 oz.)", "setting": "[2]; [13]", "value": 0.844, "unit": "g per 16 oz."}, {"measurement": "Dissolved Leucine (g per 16 oz.)", "setting": "[2]; [14]", "value": 1.62, "unit": "g per 16 oz."}, {"measurement": "slope of plot of leucine dissolution vs myo-inositol on a molar basis (FIG. 5)", "setting": "[2]; second material, myo-inositol 0%, 1%, 2%, 30-second plot", "value": 1.0816}, {"measurement": "Dissolved amino acid (g per 16 oz.)", "setting": "[3]; myo-inositol 0%, 30 seconds", "value": 1.73, "unit": "g per 16 oz."}, {"measurement": "Dissolved amino acid (g per 16 oz.)", "setting": "[3]; myo-inositol 0%, 60 seconds", "value": 2.42, "unit": "g per 16 oz."}, {"measurement": "Dissolved amino acid (g per 16 oz.)", "setting": "[3]; myo-inositol 0%, 90 seconds", "value": 2.67, "unit": "g per 16 oz."}, {"measurement": "Dissolved amino acid (g per 16 oz.)", "setting": "[3]; myo-inositol 0%, 240 seconds", "value": 3.22, "unit": "g per 16 oz."}, {"measurement": "Dissolved amino acid (g per 16 oz.)", "setting": "[3]; myo-inositol 0%, 600 seconds", "value": 3.44, "unit": "g per 16 oz."}, {"measurement": "Dissolved amino acid (g per 16 oz.)", "setting": "[3]; myo-inositol 1%, 30 seconds", "value": 1.95, "unit": "g per 16 oz."}, {"measurement": "Dissolved amino acid (g per 16 oz.)", "setting": "[3]; myo-inositol 1%, 60 seconds", "value": 2.51, "unit": "g per 16 oz."}, {"measurement": "Dissolved amino acid (g per 16 oz.)", "setting": "[3]; myo-inositol 1%, 90 seconds", "value": 2.76, "unit": "g per 16 oz."}, {"measurement": "Dissolved amino acid (g per 16 oz.)", "setting": "[3]; myo-inositol 1%, 240 seconds", "value": 3.27, "unit": "g per 16 oz."}, {"measurement": "Dissolved amino acid (g per 16 oz.)", "setting": "[3]; myo-inositol 1%, 600 seconds", "value": 3.40, "unit": "g per 16 oz."}, {"measurement": "Dissolved amino acid (g per 16 oz.)", "setting": "[3]; myo-inositol 2%, 30 seconds", "value": 1.91, "unit": "g per 16 oz."}, {"measurement": "Dissolved amino acid (g per 16 oz.)", "setting": "[3]; myo-inositol 2%, 60 seconds", "value": 2.36, "unit": "g per 16 oz."}, {"measurement": "Dissolved amino acid (g per 16 oz.)", "setting": "[3]; myo-inositol 2%, 90 seconds", "value": 2.67, "unit": "g per 16 oz."}, {"measurement": "Dissolved amino acid (g per 16 oz.)", "setting": "[3]; myo-inositol 2%, 240 seconds", "value": 3.25, "unit": "g per 16 oz."}, {"measurement": "Dissolved amino acid (g per 16 oz.)", "setting": "[3]; myo-inositol 2%, 600 seconds", "value": 3.45, "unit": "g per 16 oz."}, {"measurement": "Dissolved amino acid (g per 16 oz.)", "setting": "[3]; myo-inositol 4%, 30 seconds", "value": 2.02, "unit": "g per 16 oz."}, {"measurement": "Dissolved amino acid (g per 16 oz.)", "setting": "[3]; myo-inositol 4%, 60 seconds", "value": 2.47, "unit": "g per 16 oz."}, {"measurement": "Dissolved amino acid (g per 16 oz.)", "setting": "[3]; myo-inositol 4%, 90 seconds", "value": 2.72, "unit": "g per 16 oz."}, {"measurement": "Dissolved amino acid (g per 16 oz.)", "setting": "[3]; myo-inositol 4%, 240 seconds", "value": 3.23, "unit": "g per 16 oz."}, {"measurement": "Dissolved amino acid (g per 16 oz.)", "setting": "[3]; myo-inositol 4%, 600 seconds", "value": 3.38, "unit": "g per 16 oz."}, {"measurement": "Dissolved amino acid (g per 16 oz.)", "setting": "[3]; myo-inositol 8%, 30 seconds", "value": 1.94, "unit": "g per 16 oz."}, {"measurement": "Dissolved amino acid (g per 16 oz.)", "setting": "[3]; myo-inositol 8%, 60 seconds", "value": 2.45, "unit": "g per 16 oz."}, {"measurement": "Dissolved amino acid (g per 16 oz.)", "setting": "[3]; myo-inositol 8%, 90 seconds", "value": 2.66, "unit": "g per 16 oz."}, {"measurement": "Dissolved amino acid (g per 16 oz.)", "setting": "[3]; myo-inositol 8%, 240 seconds", "value": 3.30, "unit": "g per 16 oz."}, {"measurement": "Dissolved amino acid (g per 16 oz.)", "setting": "[3]; myo-inositol 8%, 600 seconds", "value": 3.48, "unit": "g per 16 oz."}, {"measurement": "Leu dissolved at 30 seconds (g/16 oz.)", "setting": "[4]; 30 seconds", "value": "0.422 ± 0.018", "unit": "g/16 oz."}, {"measurement": "Leu dissolved at 60 seconds (% of total Leu)", "setting": "[4]; 60 seconds", "value": "23.7 ± 1.0 % of total Leu"}, {"measurement": "Leu dissolved at 60 seconds (g/16 oz.)", "setting": "[4]; 60 seconds", "value": "0.828 ± 0.036", "unit": "g/16 oz."}]}]}
